From the supplement of paper PMC10627819

What was measured:
B. subtilis 168 [1] = assay: fitness (endpoint OD595 vs no drug) (fraction); higher = more growth
How it was run: (§1)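 At 37 °C, bacteria in TSB, LB Lennox or CY were grown in 384-well plates from a starting OD595 of 0.01. OD595 was measured every 30 min for 14 h, with the first reading used as background. Fitness is the optical density at the switch to stationary phase as a fraction of the robust mean of no-drug control wells, capped at 1.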

B. subtilis 168 [2] = assay: Bliss interaction score (quartile over a dose matrix) (fitness difference); higher = more antagonism (negative = synergy)
How it was run: (§2)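 The Bliss score was calculated by subtracting the expected fitness, the product of single-drug values, from the observed fitness. OD595 at entry into stationary phase, over the plate's robust no-drug mean and capped at 1, served as the fitness readout. Single-drug values were inferred from combination data, and scores are summarised by quartiles across technical, biological and donor/recipient replicates.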

S. aureus DSM 20231 = assay: as above
How it was run: as §2

S. aureus Newman = assay: as above
How it was run: as §2

S. pneumoniae D39V [3] = assay: as above
How it was run: as §2

S. pneumoniae D39V [4] = assay: fitness (endpoint OD595 vs no drug) (fraction); higher = more growth
How it was run: as §1
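Wherever Bliss interaction score (quartile over a dose matrix) is given: first quartile when negative (synergy) and third quartile when positive (antagonism).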

CO/N=C(\C(=O)N[C@@H]1C(=O)N2C(C(=O)O)=C(COC(N)=O)CS[C@H]12)c1ccco1 [Cefuroxime] + CCC[C@@H]1C[C@@H](C(=O)N[C@@H]([C@H]2O[C@H](SC)[C@H](O)[C@@H](O)[C@H]2O)[C@@H](C)O)N(C)C1 [Lincomycin]
fitness, B. subtilis 168 [1], one replicate
Settings | first compound 0.04875 µg/mL | first compound 0.0975 µg/mL | first compound 0.195 µg/mL | first compound 0.39 µg/mL | first compound 0.78 µg/mL | first compound 1.562 µg/mL | first compound 3.125 µg/mL | first compound 6.25 µg/mL
partner 0.1 µg/mL | 0.88 | 0.8 | – | 0.388 | 0.386 | 0.303 | 0.248 | 0.156
partner 0.2 µg/mL | 0.865 | 0.713 | – | 0.358 | 0.372 | 0.265 | 0.19 | 0.137
partner 0.4 µg/mL | – | – | – | 0.373 | 0.319 | 0.265 | 0.175 | 0.101
partner 0.8 µg/mL | 0.505 | 0.467 | 0.359 | – | – | – | – | –
partner 1.6 µg/mL | 0.498 | 0.428 | 0.323 | – | – | – | – | –

fitness, B. subtilis 168 [1]
Settings | first compound 0.04875 µg/mL | first compound 0.0975 µg/mL | first compound 0.195 µg/mL
partner 0.1 µg/mL | – | – | 0.554
partner 0.2 µg/mL | – | – | 0.521
partner 0.4 µg/mL | 0.682 | 0.644 | 0.396

Settings | Bliss interaction score
B. subtilis 168 [2] | 0.0554
S. aureus DSM 20231 | -0.223
S. aureus Newman | -0.0658
S. pneumoniae D39V [3] | 0.0595

CO/N=C(\C(=O)N[C@@H]1C(=O)N2C(C(=O)O)=C(COC(N)=O)CS[C@H]12)c1ccco1 [Cefuroxime] + CN(C)C(=O)C(CCN1CCC(O)(c2ccc(Cl)cc2)CC1)(c1ccccc1)c1ccccc1 [Loperamide]
fitness, B. subtilis 168 [1]
Settings | first compound 0.04875 µg/mL | first compound 0.0975 µg/mL | first compound 0.195 µg/mL
partner 50 µg/mL | 0.0325 | 0.0377 | 0.0259
partner 100 µg/mL | 0.0294 | 0.0312 | 0.0385

fitness, B. subtilis 168 [1], one replicate
Settings | first compound 1.562 µg/mL | first compound 3.125 µg/mL | first compound 6.25 µg/mL
partner 25 µg/mL | 0.0361 | 0.0294 | 0.0192
partner 50 µg/mL | 0.0196 | 0.033 | 0.0196
partner 100 µg/mL | 0.012 | 0.0049 | 0.0099

Settings | Bliss interaction score
B. subtilis 168 [2] | -0.12
S. aureus DSM 20231 | -0.521
S. aureus Newman | -0.0645
S. pneumoniae D39V [3] | -0.0403

COc1cccc2c1C(=O)c1c(O)c3c(c(O)c1C2=O)C[C@@](O)(C(=O)CO)C[C@@H]3O[C@H]1C[C@H](N)[C@H](O)[C@H](C)O1 [Doxorubicin] + O=C1CN(/N=C/c2ccc([N+](=O)[O-])o2)C(=O)N1 [Nitrofurantoin]
fitness, S. pneumoniae D39V [4]
Settings | partner 1.285 µg/mL | partner 2 µg/mL | partner 2.57 µg/mL | partner 4 µg/mL | partner 8 µg/mL
first compound 0.25 µg/mL | 0.935 | 0.918 | 0.91 | 0.857 | 0.465
first compound 0.5 µg/mL | 0.925 | 0.946 | 0.94 | 0.795 | 0.436
first compound 1 µg/mL | 0.825 | 0.814 | 0.809 | 0.721 | 0.405

S. pneumoniae D39V [4], partner 5.14 µg/mL, one replicate
Settings | fitness
first compound 0.25 µg/mL | 0.822
first compound 0.5 µg/mL | 0.858
first compound 1 µg/mL | 0.695

Settings | Bliss interaction score
B. subtilis 168 [2] | -0.221
S. aureus DSM 20231 | -0.0576
S. aureus Newman | -0.0388
S. pneumoniae D39V [3] | 0.0747
